Assay results: publication PMC4750397 (Clinical lung cancer, 2015)
Marks after values point to notes of the source that are not given here.

Key:
[1] = Plasma pharmacokinetics of regorafenib, M-2 and M-5; assay type: in vivo, human; details: for AUC(0–24)md Ratio (90% CI) / Cmax,md Ratio (90% CI): Ratio = C2D1:C1D21; for AUC(0–24)md Ratio (90% CI) / Cmax,md Ratio (90% CI) / tmax,md: n = 6; for Tmax: human, plasma, oral; for tmax,md: median (range printed in cell); for coefficient of variation (CV) in AUC and Cmax: high variability, Table 3A
human xenograft models = details: greater potency than sorafenib; ref [4], [22]; cited from earlier work
[2] = tested on: patients with advanced nsNSCLCs; details: single agent, ref [7], cited from earlier work
[3] = Plasma pharmacokinetics of pemetrexed; assay type: in vivo, human
patients with NSCLCs = details: sunitinib added to cisplatin and pemetrexed; ref [20]; cited from earlier work
[4] = C2 D1, following cisplatin and pemetrexed
[5] = Cycle 1, Day 1 vs Cycle 2, Day 1

## CNC(=O)c1cc(Oc2ccc(NC(=O)Nc3ccc(Cl)c(C(F)(F)F)c3)c(F)c2)ccn1 [Regorafenib, reference compound]
[1]; C2 D1 vs C1 D21
  Mean AUC(0–24)md and Cmax,md on both days (in words): comparable
[1]
  AUC(0–24)md Ratio (90% CI): 0.93 (0.77–1.12)
  Cmax,md Ratio (90% CI): 1.03 (0.70–1.51)
  Tmax: 4 h
[1]; 60 mg/day
  Tmax: 4 h
Human xenograft models
  potency in human xenograft models relative to sorafenib: ~ 3 times
[2]; 4 of 18 evaluable patients
  patients with stable disease for ≥12 weeks: 22%
[2]; 23 patients
  Grade 4 or 5 toxicities: no Grade 4 or 5 toxicities were observed
[2]; one patient
  progression-free survival of one patient: ~40 weeks
[2]; two non-consecutive measurements
  tumor reduction in one patient: > 30%

## NC(=O)c1cc(Oc2ccc(NC(=O)Nc3ccc(Cl)c(C(F)(F)F)c3)c(F)c2)cc[n+]1[O-] [M-5]
[1]; C1 D21, regorafenib alone
  tmax,md: 16.0 (4–24 ^a) hours
[1]; [4]
  tmax,md: 5.0(0–6.25 ^a) hours
[1]; C2 D1 vs C1 D21
  Mean AUC(0–24)md and Cmax,md on both days (in words): comparable
[1]
  AUC(0–24)md Ratio (90% CI): 0.84 (0.67–1.06)
  Cmax,md Ratio (90% CI): 0.97 (0.78–1.20)
  coefficient of variation (CV) in AUC and Cmax: > 150%

## Nc1nc2[nH]cc(CCc3ccc(C(=O)N[C@@H](CCC(=O)O)C(=O)O)cc3)c2c(=O)[nH]1 [Pemetrexed]
[3]; [5]
  mean AUC on both days (in words): comparable
  mean pemetrexed concentration, before vs after regorafenib (in words): no difference
[3]; Cycle 2, Day 1 vs Cycle 1, Day 1
  Cmax after regorafenib (in words): slightly increased
[3]; Ratio = C2D1:C1D1, n = 8
  AUC(0–infinity) Ratio (90% CI): 1.05 (0.96–1.16)
  Cmax Ratio (90% CI): 1.20 (1.05–1.35)

## CNC(=O)c1cc(Oc2ccc(NC(=O)Nc3ccc(Cl)c(C(F)(F)F)c3)c(F)c2)cc[n+]1[O-] [M-2]
[1]; C1 D21, regorafenib alone
  tmax,md: 4.0 (2–24 ^a) hours
[1]; [4]
  tmax,md: 5.0 (0–6.25 ^a) hours
[1]; C2 D1 vs C1 D21
  mean AUC(0–24)md lower following the pemetrexed and cisplatin treatment: 48%
  mean Cmax,md lower following the pemetrexed and cisplatin treatment: 38%
[1]
  AUC(0–24)md Ratio (90% CI): 0.52 (0.44–0.61)
  Cmax,md Ratio (90% CI): 0.62 (0.46–0.83)
  coefficient of variation (CV) in AUC and Cmax: > 75%

## CCN(CC)CCNC(=O)c1c(C)[nH]c(/C=C2\C(=O)Nc3ccc(F)cc32)c1C [sunitinib]
Patients with NSCLCs
  myelosuppression: substantial myelosuppression
